Laboratory results as given in EP4701641B1, “5-AMINO-2,3-DIHYDRO-1,4-PHTHAL[…] THE PROPHYLAXIS AND TREATMENT OF […]” (MetrioPharm AG, priority 2023, dated 2025).
Read-outs that look alike come from different tables or passages of the source.

Legend:
D-dimer = conditions: for D-dimer concentration (median of the group): plasma
Source text: The study was randomized, double-blind, and placebo-controlled, with enrollment at 20 IEC (independent ethics committee)-approved sites across six countries (Bulgaria, France, Hungary, Italy Romania, Spain); a list of all participating sites is published on clinicaltrials.gov. (NCT04932941). This study was partially funded by the COVID-19 Horizon Europe work programme (Project No.: 101046182). The funder of the study had no role in study design, data collection, data analysis, data interpretation, or writing of the report.
Further details on the in- and exclusion criteria are available on cliniclatrials.gov NCT04932941.
Stratification factors included baseline COVID-19 severity and age-class (aged ≤ 65 years versus > 65 years).
Patients were treated for 28 days. […] These patients were discharged from the hospital before and received medication (verum or placebo) for continuing self-treatment for the remaining time at home. After 60 days there was a follow-up visit.
The D-dimer level is an important prognostic marker for COVID-19 severity. An elevated D-dimer level is associated with thromboembolic complications. For monitoring the development of this biomarker throughout the study blood samples were taken at Days 1, 7, 14, 21, 28 and 60. The D-dimer concentration was determined (PPD Central Lab, Zaventem, Belgium) from the plasma by means of monoclonal antibodies quantified in an ELISA (cf. Olson (2015) Adv Clin Chem 69: 1 - 46; Johnson et al. (2019) Am J Hematol 94: 833-839).

[1] = system: Coronary artery smooth muscle cells; conditions: added 1 hour before stimulation with IL-1β, TNF-α and IFN-γ, 48 hours in culture, triplicates averaged
Method: Coronary artery smooth muscle cells pooled from human donors (n = 3) were commercially acquired and cultured according to the recommendations of the manufacturer. They were stimulated with IL-1β, TNF-α and IFN-γ to emulate conditions of vascular inflammation. The […] were cultured in 96 well-plates until confluence. Details are described in Kunkel et al. (2004) FASEB J 18: 1279-1281). […] The substance was added at the indicated concentration 1 hour before stimulation and remained in culture for 48 hours. Each plate contained positive and negative controls (non-stimulated cells) as well as vehicle controls (buffer solution). Direct ELISA (enzyme-linked immunosorbent assay) was used to measure thrombomodulin levels. Soluble factors from supernatants were quantified using capture ELISA.
Measurements were carried out in triplicates which were then averaged and divided by the average of vehicle control samples. Vehicle control samples were taken as 100%.

[2] = system: hospitalized patients with moderate to severe COVID-19
SARS-CoV-2 = SARS-CoV-2 infected cells; from WO 2021/249667; cited from earlier work

Nc1cccc2c(=O)[nH][nH]c(=O)c12.[Na] [5-amino-2,3-dihydro-1,4-phthalazinedione sodium salt]
D-dimer concentration (median of the group) (D-dimer; day 60 (follow-up visit)): 138.0 ng/mL DDU | modelled effect on D-dimer levels compared to placebo (D-dimer; post-hoc analysis, modelled, p<0.001, Fig. 1): significant decrease | D-dimer concentration (median of the group) (D-dimer; treatment day 1, 300 mg BID plus SoC): 235.5 ng/mL DDU | D-dimer concentration (median of the group) (D-dimer; treatment day 7, 300 mg BID plus SoC): 205.0 ng/mL DDU | D-dimer concentration (median of the group) (D-dimer; treatment day 14, 300 mg BID plus SoC): 171.0 ng/mL DDU | D-dimer concentration (median of the group) (D-dimer; treatment day 21, 300 mg BID plus SoC): 208.0 ng/mL DDU | D-dimer concentration (median of the group) (D-dimer; treatment day 28, 300 mg BID plus SoC): 172.0 ng/mL DDU | thrombomodulin release (vehicle control = 100%) ([1]; 62.5 µM): 127.4% | thrombomodulin release (vehicle control = 100%) ([1]; 250 µM): 115.1% | thrombomodulin release (vehicle control = 100%) ([1]; 1 mM): 159.6% | thrombomodulin release (vehicle control = 100%) ([1]; 4 mM): 255.9% | disease resolution by Day 14 (patients) ([2]; 300 mg BID plus SoC, placebo group 31/43): 69/82 | effect on hemostasis (clinical parameters or adverse side effects) ([2]; clinical study in COVID-19 patients): no evidence | replication of the virus (SARS-CoV-2): suppress dose-dependently
